# According to article PMC7083565, “In vitro metabolism, reaction phenotyping, enzyme kinetics, CYP inhibition and induction potential of ataluren” (Pharmacology Research & Perspectives, 2020):
# Like-named read-outs stand apart in the source and are kept apart here.
# Columns and labels:
# Format in all cases: in vitro ADME
# [1] = system: CYP2E1; experiment: CYP induction in primary human hepatocytes: CYP2E1; details: male, 48 h, 4 µM
# Description: Human hepatocytes isolated from three Caucasian males were transferred to 48‐well collagen‐coated plates at 0.14 × 10^6 cells/well in planting media for attachment. After attachment, planting media was replaced with sandwich media and the cells were incubated until clusters were established. […] The incubation solutions were aspirated and replaced with freshly prepared incubation solutions containing ataluren for an additional 24 hours. […] The incubation solutions were then aspirated and 150 µL of K‐H buffer containing CYP substrates were added. […] Metabolite formation in incubations with test compounds and control inhibitors was assessed with validated LC‐MS/MS methods for each of the reaction products as described in Table S2. Enzymatic activity for each CYP was calculated using the absolute amount of metabolite formed (pmol) divided by hepatocytes in the incubation (million cells) and the incubation time (minute). The relative fold induction in enzymatic activity was calculated by comparing the rate of metabolite formation for treatment groups to that of the solvent control group (reported as vehicle control%) or positive control group (reported as positive control%).
# [2] = system: UGT (glucuronidation); experiment: Ataluren glucuronidation kinetics, human kidney microsomes; details: human, pooled human kidney microsomes, pH 7.5, HKM, 0% BSA; read-out: CLint,u,UGT
# Description: (§1) Ataluren at 0.5, 2.5, 12.5, 25, 50, 100, 200, and 400 µmol/L, was incubated (n = 3) at 37°C with recombinant human UGT1A9 and with pooled microsomes from human liver, kidney, and intestine (0.025 mg protein/mL, preactivated with alamethicin at 20 µg/mL) in Tris‐HCl buffer (0.1 mol/L, pH 7.5), in the presence of 1 mmol/L EDTA, 5 mmol/L MgCl2, with or without 0.5%, 1%, or 2% BSA. The incubation (100 µL final volume with 0.5% DMSO) was started by adding an equal volume of UDPGA (5 mmol/L) in Tris‐HCl buffer (0.1 mol/L, pH 7.5). After 30 minutes incubation, the incubation mixtures were combined with 0.3 mL of an internal standard solution in acetonitrile with 1% formic acid, followed by membrane plate filtration. The filtrates were used for LC‐MS/MS analysis to quantify the formation of ataluren‐O‐1β‐acyl glucuronide. Detailed LC‐MS/MS conditions are summarized in LC‐MS/MS Analysis section. Ataluren acyl glucuronide formation rate after 30 minutes incubation was calculated using the amount of metabolite formed (pmol) divided by the protein amount in the incubation sample (0.0025 mg) and the incubation time (30 minutes). Ataluren glucuronidation kinetic parameters were determined with and without adjusting BSA binding by nonlinear regression (GraphPad Prism, 5version 5.04, GraphPad Software, Inc.) using Michaelis‐Menten equation which was the best fit compared with other models. The intrinsic clearance was calculated as CLint = Vmax/Km. In order to compare unbound intrinsic clearance by glucuronidation (CLint,u,UGT) in different tissues, CLint,u,UGT was expressed per gram of tissue by correcting the values for the microsomal protein yield, resulting in scaled CLint,u,UGT. Microsomal protein yields of 40.0, 12.8, and 20.6 mg protein/g tissue were used for hepatic, renal, and intestinal data, respectively. ^26
# (§2) The high‐throughput membrane ultrafiltration method ^27 was used to determine the fraction unbound in the incubation (n = 3). Incubation mixtures and procedures were essentially the same as the above except that UDPGA (5 mmol/L) was replaced with Tris‐HCl buffer (0.1 mol/L, pH 7.5). After 15 minutes incubation, aliquot was transferred to a Millipore Multiscreen Ultracel‐10 filter plate (10 kDa molecular mass cut off; EMD Millipore). The plate was centrifuged at 37°C and 3710 g. After 30 minutes centrifugation, aliquots of ultrafiltrates and incubation mixtures prior to ultrafiltration were quenched with an internal standard solution in acetonitrile, followed by membrane plate filtration. The filtrates were used for LC‐MS/MS analysis to quantify the concentration of ataluren. The same LC‐MS/MS conditions described above are summarized in LC‐MS/MS Analysis section. The free fraction = Cu/Cm, where Cu is the concentration of ataluren in the ultrafiltrate and Cm is the concentration of ataluren in the incubation system before centrifugation. Unbound Km (Km, u) was recalculated by applying Michaelis‐Menten equation using free ataluren concentrations after correcting BSA binding at each ataluren and BSA concentration level.
# (§3) Quantification of ataluren‐O‐1β‐acyl glucuronide formation was conducted on an Accela pump and a PAL autosampler equipped with a TSQ Quantum Ultra mass spectrometer (Thermo Fisher Scientific). A Waters Acquity BEH column (C18, 1.7 µm, 50 × 2.1 mm; Waters Cooperation) was used and maintained at 50°C. The mobile phases were 0.1% formic acid in water (A) and acetonitrile (B). The flow rate was 0.6 mL/min and gradient program was as follows: linear gradient from 0% B to 95% B in 0.5 minutes and hold isocratic at 95% B for 1 minute; linear gradient from 95% B to 0% B in 0.1 minutes and hold isocratic at 0% B for 0.4 minutes. TSQ Quantum Ultra mass spectrometer was equipped with a heated electrospray ionization source operated in negative‐ion mode with a vaporizer temperature of 350°C, capillary temperature of 380°C, and spray voltage of 3 kV. […]
# [3] = as above; details: for CLint,u,UGT (scaled) / K m / K m, u / V max: HKM; for CLint,u,UGT (scaled): 12.8 mg protein/g tissue; for K m / K m, u / V max: mean ± SE; for K m / K m, u / V max / fraction unbound at 15 min: n = 3; for fraction unbound at 15 min / microsomal CLint: human, pH 7.5, HKM; for fraction unbound at 15 min: pooled human kidney microsomes incubation mixture, mean ± SD, read-out: fu,inc; for microsomal CLint: pooled human kidney microsomes, read-out: CLint,u,UGT
# Description: as §1, §2, §3
smiles,measurement,setting,value
"O=C(O)c1cccc(-c2noc(-c3ccccc3F)n2)c1 [ataluren, Ataluren]","Vehicle control %, Mean",[1],99.0%
same,microsomal CLint,[2],324 µL/min/mg
same,"human kidney microsomes more active than human liver microsomes in ataluren glucuronidation, in terms of CLint,u/mg protein",[3]; HKM vs HLM,about 3.7 fold
same,"CLint,u,UGT (scaled)",[3]; 0% BSA,4.15 mL/min/g of tissue
same,K m,[3]; 0% BSA,10.8 ± 1.40 µmol/L
same,"K m, u",[3]; 0% BSA,10.8 ± 1.40 µmol/L
same,V max,[3]; 0% BSA,3948 ± 90.3 pmol/min/mg
same,"CLint,u,UGT (scaled)",[3]; 0.5% BSA,12.18 mL/min/g of tissue
same,K m,[3]; 0.5% BSA,33.0 ± 7.36 µmol/L
same,"K m, u",[3]; 0.5% BSA,3.09 ± 0.671 µmol/L
same,V max,[3]; 0.5% BSA,2941 ± 168 pmol/min/mg
same,"CLint,u,UGT (scaled)",[3]; 1% BSA,20.0 mL/min/g of tissue
same,K m,[3]; 1% BSA,36.5 ± 6.31 µmol/L
same,"K m, u",[3]; 1% BSA,1.64 ± 0.334 µmol/L
same,V max,[3]; 1% BSA,2563 ± 137 pmol/min/mg
same,"CLint,u,UGT (scaled)",[3]; 2% BSA,16.5 mL/min/g of tissue
same,K m,[3]; 2% BSA,74.1 ± 8.38 µmol/L
same,"K m, u",[3]; 2% BSA,1.82 ± 0.291 µmol/L
same,V max,[3]; 2% BSA,2342 ± 119 pmol/min/mg
same,"maximal effect of BSA on CLint,u (increase)","[3]; human kidney microsomes, with vs without BSA",~4.8 fold
same,fraction unbound at 15 min,[3]; 0% BSA,1 ± 0.121
same,fraction unbound at 15 min,[3]; 0.5% BSA,0.095 ± 0.003
same,fraction unbound at 15 min,[3]; 1% BSA,0.05 ± 0.002
same,fraction unbound at 15 min,[3]; 2% BSA,0.03 ± 0.003
same,microsomal CLint,[3]; 0.5% BSA,952 µL/min/mg
same,microsomal CLint,[3]; 1% BSA,1560 µL/min/mg
same,microsomal CLint,[3]; 2% BSA,1290 µL/min/mg
